In assay [1] the test system is A549. Kind of assay: Growth inhibition of human A549 cells at 10 uM after 48 hrs by SRB assay. It is filed as functional. To be noted: A549, 48 h, read-out: GI.
For assay [2], the system named is THP-1. Description: Ratio of 5-fluorouracil IC50 to compound IC50 for human THP1 cells. It is filed as functional.
The subject of assay [3] is THP-1. Kind of assay: Growth inhibition of human THP1 cells at 10 uM after 48 hrs by SRB assay. Format: functional. To be noted: THP-1, 48 h, read-out: GI. In general terms: Sulforhodamine B stains cellular protein and so reports cell mass.
For assay [4], the system named is A549. Description: Growth inhibition of human A549 cells at 50 uM after 48 hrs by SRB assay. To be noted: A549, 48 h, read-out: GI. Format: functional.
Assay [5] concerns A549. Description: Growth inhibition of human A549 cells after 48 hrs by SRB assay. It is filed as functional, cell-based. To be noted: for IC50: A549, 48 h.
The subject of assay [6] is THP-1. Kind of assay: Growth inhibition of human THP1 cells after 48 hrs by SRB assay. Format: functional, cell-based. To be noted: for IC50: THP-1, 48 h.
The test system of assay [7] is PC-3. Kind of assay: Growth inhibition of human PC3 cells at 100 uM after 48 hrs by SRB assay. As to conditions: PC-3, 48 h, read-out: GI. It is filed as functional.
The subject of assay [8] is Caco-2. Description: Growth inhibition of human Caco2 cells at 10 uM after 48 hrs by SRB assay. As to conditions: Caco-2, 48 h, read-out: GI. It is filed as functional.
Assay [9] deals with Caco-2. Kind of assay: Growth inhibition of human Caco2 cells at 100 uM after 48 hrs by SRB assay. It is filed as functional. As to conditions: Caco-2, 48 h, read-out: GI.
Assay [10] has as its system PC-3. Description: Growth inhibition of human PC3 cells at 10 uM after 48 hrs by SRB assay. As to conditions: PC-3, 48 h, read-out: GI. Format: functional.
Assay [11] deals with A549. Kind of assay: Growth inhibition of human A549 cells at 100 uM after 48 hrs by SRB assay. Format: functional. As to conditions: A549, 48 h, read-out: GI.
For assay [12], the system named is PC-3. Kind of assay: Growth inhibition of human PC3 cells after 48 hrs by SRB assay. As to conditions: for IC50: PC-3, 48 h. It is filed as functional, cell-based.
Assay [13] deals with PC-3. Kind of assay: Growth inhibition of human PC3 cells at 50 uM after 48 hrs by SRB assay. Format: functional. As to conditions: PC-3, 48 h, read-out: GI.
Assay [14] deals with Caco-2. Description: Growth inhibition of human Caco2 cells after 48 hrs by SRB assay. Format: functional, cell-based. To be noted: for IC50: Caco-2, 48 h.
The test system of assay [15] is Caco-2. Description: Growth inhibition of human Caco2 cells at 50 uM after 48 hrs by SRB assay. It is filed as functional. As to conditions: Caco-2, 48 h, read-out: GI.
Assay [16] deals with THP-1. Description: Growth inhibition of human THP1 cells at 100 uM after 48 hrs by SRB assay. To be noted: THP-1, 48 h, read-out: GI. It is filed as functional.
The test system of assay [17] is THP-1. Kind of assay: Growth inhibition of human THP1 cells at 50 uM after 48 hrs by SRB assay. Format: functional. As to conditions: THP-1, 48 h, read-out: GI.
For assay [18], the system named is Caco-2. Kind of assay: Growth inhibition of human Caco2 cells at 20 uM after 48 hrs by SRB assay. Format: functional. As to conditions: Caco-2, 48 h, read-out: GI.
Assay [19] concerns THP-1. Kind of assay: Growth inhibition of human THP1 cells at 20 uM after 48 hrs by SRB assay. It is filed as functional. As to conditions: THP-1, 48 h, read-out: GI.
Assay [20] relates to A549. Description: Growth inhibition of human A549 cells at 1 uM after 48 hrs by SRB assay. Format: functional. To be noted: A549, 48 h, read-out: GI.
Assay [21] has as its system PC-3. Kind of assay: Growth inhibition of human PC3 cells at 1 uM after 48 hrs by SRB assay. To be noted: PC-3, 48 h, read-out: GI. Format: functional.

A value given as a limit tells only on which side of the number the result lay.

The values that follow come from ChEMBL document CHEMBL2062394, “Azide-alkyne cycloaddition en route to novel 1H-1,2,3-triazole tethered isatin conjugates with in vitro cytotoxic evaluation” (Eur J Med Chem, 2012).

As to `Cc1ccc2c(c1)C(=O)C(=O)N2Cc1cn(CCN2C(=O)C(=O)c3cc(Cl)ccc32)nn1`, the inhibition of growth at 10 µM came out at 81% in assay [1], 71% in [3], 39% in [8] and 36% in assay [10]. Further, in assay [2], the “Ratio IC50” value amounted to 2. For the same compound, the inhibition of growth at 50 µM in assay [4] stood at 95%; in [13], 55%; in assay [15], 52%; in assay [17] it was 91%. Moreover, the “growth inhibition (GI)” value in assay [5], in [6], in assay [12] and in assay [14] was “Dose-dependent effect” throughout. Further, the IC50 – broadly, the point on the concentration scale where inhibition reaches its midpoint – in assay [5] is under 1 µM; in [6], under 1 µM; in assay [12], 32.6 µM; in [14] it was 44.9 µM. Moreover, the inhibition of growth at 100 µM was 70% in assay [7], 56% in [9], 98% in assay [11] and 92% in assay [16].

For the compound `Cc1ccc2c(c1)C(=O)C(=O)N2Cc1cn(CCN2C(=O)C(=O)c3ccccc32)nn1`, the inhibition of growth at 10 µM in assay [1] was found to be 35%; in assay [3], 89%; in assay [8], 0%; in [10], 63%. In [2], the “Ratio IC50” value worked out at 2. The inhibition of growth at 50 µM in [4] turned out to be 99%; in assay [13] it was 100%; in assay [15], 0%; in assay [17], 100%. Moreover, the “growth inhibition (GI)” value in assay [5], in [6], in assay [12] and in assay [14] was “Dose-dependent effect” throughout. The IC50 in assay [5] was 18.4 µM; in [6], under 1 µM; in [12] it was 3.03 µM; in assay [14], over 100 µM. The inhibition of growth at 100 µM in assay [7] came out at 100%; in [9] it was 17%; in [11] it was 100%; in [16] it was 100%.

As to `O=c1[nH]cc(F)c(=O)[nH]1` [FLUOROURACIL], the inhibition of growth at 20 µM in assay [18] is 68%; in assay [19], 70%.

As for `O=C1C(=O)N(CCn2cc(CN3C(=O)C(=O)c4ccccc43)nn2)c2ccccc21`, the inhibition of growth at 10 µM in assay [1] is 96%; in assay [3], 100%; in assay [8], 9%; in assay [10], 99%. Further, in [2], the “Ratio IC50” value came out at 2. Further, the inhibition of growth at 50 µM in assay [4] was found to be 98%; in [13], 100%; in assay [15] it was 20%; in assay [17], 100%. Moreover, the “growth inhibition (GI)” value in assay [5], in assay [6], in assay [12] and in assay [14] was “Dose-dependent effect” in each case. Moreover, the IC50 was under 1 µM in [5], under 1 µM in [6], under 1 µM in assay [12] and over 100 µM in assay [14]. The inhibition of growth at 100 µM in assay [7] turned out to be 100%; in [9], 36%; in assay [11], 99%; in assay [16], 100%.

Consider `CC(=O)O[C@H]1C(=O)[C@@]2(C)[C@H]([C@H](OC(=O)c3ccccc3)[C@]3(O)C[C@H](OC(=O)[C@H](O)[C@@H](NC(=O)c4ccccc4)c4ccccc4)C(C)=C1C3(C)C)[C@]1(OC(C)=O)CO[C@@H]1C[C@@H]2O` [PACLITAXEL], for which the inhibition of growth at 1 µM in assay [20] came to 69%.

As to `CO[C@@]12[C@H](COC(N)=O)C3=C(C(=O)C(C)=C(N)C3=O)N1C[C@@H]1N[C@@H]12` [MITOMYCIN], the inhibition of growth at 1 µM in [21] was 60%.

As to `O=C1C(=O)N(CCn2cc(CN3C(=O)C(=O)c4cc(Cl)ccc43)nn2)c2ccccc21`, the inhibition of growth at 10 µM in assay [1] is 94%; in assay [3] it was 80%; in assay [8] it was 6%; in assay [10], 99%. Also, in assay [2], the “Ratio IC50” value is listed as 2. Further, the inhibition of growth at 50 µM was found to be 98% in assay [4], 100% in assay [13], 24% in assay [15] and 90% in assay [17]. In addition, the “growth inhibition (GI)” value in assay [5], in assay [6], in [12] and in [14] was “Dose-dependent effect” throughout. The IC50 in assay [5] is under 1 µM; in [6], under 1 µM; in assay [12], under 1 µM; in assay [14] it was over 100 µM. The inhibition of growth at 100 µM in [7] came to 100%; in assay [9], 38%; in assay [11], 100%; in assay [16] it was 100%.
